According to patent EP0184331A2 (priority 1984, dated 1986):
Read-outs that look alike come from different tables or passages of the source.

Columns and labels:
Graffi virus = details: cited from earlier work
[1] = tested on: leukemic cells obtained by infection of mice with Graffi's leukemia virus; details: cited from earlier work
[2] = tested on: tobacco mosaic virus (TMV); details: 100 mW/cm^2 long-wave ultraviolet light; AMT and HMT indistinguishable; cited from earlier work
[3] = tested on: vesicular stomatitis virus; details: approximately 5 minutes irradiation at 9 mW/cm^2, 8.2 µg/ml AMT; cited from earlier work
Moloney sarcoma virus = details: cited from earlier work
[4] = tested on: Intracellular influenza virus; details: 10 µg/ml of AMT, 1.2 mW/cm^2; cited from earlier work
Herpes virus = details: cited from earlier work; for photoinactivation: in 0.9 minutes, 10 ug/ml, 1.2 mW/cm^2 long-wave ultraviolet light
[5] = tested on: Western equine encephalitis virus (WEE, an RNA virus); details: cited from earlier work
[6] = tested on: Vesicular stomatitis virus (VSV); details: cited from earlier work; for effectiveness in photoinactivation compared with TMP: 0.7 mW/cm^2 long-wave UV light; for light dose response in the inactivation of VSV: 20-30 µg/ml
[7] = tested on: cell-free influenza virus; details: 1.2 mW/cm^2, cited from earlier work
[8] = tested on: vesicular stomatitis virus; details: 9 mW/cm^2 long-wave ultraviolet light; sufficient for inactivation; cited from earlier work
[9] = tested on: reovirus (a double-stranded RNA virus); details: cited from earlier work
[10] = tested on: herpes simplex virus (a DNA virus); details: cited from earlier work
influenza virus = details: cited from earlier work
Rous sarcoma virus = details: cited from earlier work
[11] = cited from earlier work
Teschen disease virus = details: cited from earlier work
fowl pox virus = details: cited from earlier work
NewCastle disease virus = details: cited from earlier work
pseudorabies = details: cited from earlier work
[12] = tested on: foot-and-mouth disease virus; details: cited from earlier work
HTLV-III = type: cell-based, Human Tumor Leukemia Virus (HTLV) III
canine hepatitis virus = details: cited from earlier work
[13] = 30 minutes at 11.5 mW/cm^2 ultraviolet light (365 mm), 10 µg/ml
[14] = 30 minutes at 11.5 mW/cm^2 ultraviolet light, 10 µg/ml
[15] = at higher psoralen derivative concentrations
[16] = on a molar basis, within TMP solubility range

For `Cc1coc2c(C)c3oc(=O)cc(C)c3cc12` [4,4',8-trimethylpsoralen], the “properties of the [intracellular] Graffi virus” value (from here on “properties”) (Graffi virus; [13]) is given as “remained unchanged” and the “effect on leukemic cells (ability to replicate or induce leukemia in adult mice)” value (shortened to “effect on leukemic cells”) [1, 14] is given as “killed the cells”.
In the case of `Cc1c2occc2cc2ccc(=O)oc12` [8-methyl-psoralen], the “properties” value (Graffi virus; [13]) is listed as “remained unchanged” and the “effect on leukemic cells” value [1, 14] is listed as “killed the cells”.
In the case of `Cc1oc2c(C)c3oc(=O)cc(C)c3cc2c1CN` [AMT, 4'-aminomethyl 4,5',8-trimethyl-psoralen], the “effect on translational activity compared with TMP” value [2] is listed as “slightly greater than the effects of TMP”, the “reduction of viral RNA polymerase activity” value [3] is listed as 100 -fold and the inactivation (Moloney sarcoma virus) is listed as 10 -fold. The “time required for a 10^7-fold inactivation” value [4] was 4 minutes, the “effectiveness compared with HMT” value (Herpes virus; at lower concentrations of the psoralen derivatives, 1.2 mW/cm^2) was “always more effective than an equal amount of HMT” and the photoinactivation (Herpes virus) was 10^4 -fold. For the same compound, the inactivation ([5]; approximately 5 minutes of irradiation at 1.9 mW/cm^2, 10 µg/ml AMT) was 10^8 -fold, the “inactivation rates compared with TMP” value [5, 15] was “superior inactivation rates” and the “effectiveness in photoinactivation compared with TMP” value (from here on “effectiveness … compared with TMP”) [6] was “a thousand times more effective than TMP”. The “photoinactivation of VSV, comparison of derivatives” value ([6]; 2-3 µg/ml, 0.7 mW/cm^2) was “superior to HMT and MMT”, the “light dose response in the inactivation of VSV” value (“light dose response” below) ([6]; 0.7 mW/cm^2) was “equivalent with respect to light dose response” and the “rate of inactivation compared with equivalent amounts of HMT” value ([7]; at all psoralen concentrations) was “more rapidly inactivated”. The inactivation ([7]; in 1 minute, 10 µg/ml of AMT) was 10 -fold, the “photoreaction with viral RNA” value [8] was “photoreact only with a single base (cytosine)” and the reduction of infectivity ([9]; 15 minutes irradiation at 9 mW/cm^2, AMT 2.8 x 10^-4 M = 82 ug/ml) was > 10^4 -fold. The “inactivation rates compared with TMP” value [10, 15] was “superior inactivation rates” and the “reduction of viral RNA polymerase activity” value (influenza virus; approximately 5 minutes irradiation at 9 mW/cm^2, 8.2 µg/ml AMT) was 100 -fold.
In the case of `Cc1oc2c(C)c3oc(=O)cc(C)c3cc2c1CO` [HMT, 4'-hydroxymethyl 4,5',8-trimethyl-psoralen], the “effect on translational activity compared with TMP” value [2] is given as “slightly greater than the effects of TMP”, the photoinactivation (Herpes virus) is given as 10^4 -fold and the “effectiveness … compared with TMP” value [6] is given as “a thousand times more effective than TMP”. The “light dose response” value ([6]; 0.7 mW/cm^2) was “equivalent with respect to light dose response”, the reduction of infectivity ([9]; 20 minutes of irradiation at 9 mW/cm^2, HMT 2.8 x 10^-4 M = 72 µg/ml) was 5 -fold and the inactivation (Rous sarcoma virus) was 10^4 -fold. For the same compound, the “less effective than AMT in the photoinactivation of influenza virus” value (influenza virus; same conditions as AMT (9 mW/cm^2)) was “about 10 -fold”.
For `COCc1c(C)oc2c(C)c3oc(=O)cc(C)c3cc12` [MMT, 4'-methoxymethyl 4,5',8-trimethyl-psoralen], the “effectiveness … compared with TMP” value [6] is given as “a thousand times more effective than TMP” and the “light dose response” value ([6]; 0.7 mW/cm^2) is given as “equivalent with respect to light dose response”.
For `Cc1cc2cc3c(C)cc(=O)oc3c(C)c2o1` [TMP, 4,5',8-tri-methylpsoralen], the “effectiveness in photoinactivation compared with AMT” value [5, 16] is listed as “more effective”, the solubility range [11] is listed as 0 to 1 µg/mL and the “effectiveness in photoinactivation compared with AMT” value [10, 16] is listed as “more effective”.
In the case of `O=c1ccc2cc3ccoc3cc2o1` [psoralen, Psoralen], the “irradiation resisted by the virus” value (Teschen disease virus) is given as “up to 120 minutes”, the “properties” value (Graffi virus) is given as “remained unchanged” and the photoinactivation (fowl pox virus) is given as “photoinactivated”. The “irradiation resisted by the virus” value (NewCastle disease virus) was “up to 120 minutes”, the photoinactivation (pseudorabies) was “photoinactivated” and the “irradiation resisted by the virus” value [12] was “up to 120 minutes”. The “effect on leukemic cells” value [1] was “killed the cells”, the HTLV-III titers (HTLV-III) was 1 x 10^5 FFU/mL and the “infectious HTLV-III recovered” value (HTLV-III) was “no infectious HTLV-III was recovered”. The photoinactivation (canine hepatitis virus) was “photoinactivated” and the RSV inactivated (Rous sarcoma virus) was “approximately 1 x 10^5 FFU/ml”.
